In publication PMC9841523 (Journal of Medicinal Chemistry, 2022):

Key:
[1] = test system: AKT S473 phosphorylation (mTORC2); assay: AlphaLISA/MSD analysis of AKT phosphorylation in MDA-MB-468 cells; format: cell-based; conditions: Homo sapiens; MDA-MB-468 cells; read-out: pAKT IC50
Procedure: (§1) Cell culture and reagents. Cells were obtained from ATCC, grown in appropriate medium supplemented with 10% fetal bovine serum and 1% penicillin/streptomycin and maintained at 37 °C in a humidified incubator at 5% CO 2.
(§2) AlphaLISA and MesoScale Discovery (MSD) analysis of 4EBP1, S6K and AKT phosphorylation. mTOR substrate phosphorylation in MDA-MB-468 cells was assayed using AlphaLISA SureFire Ultra kits for p4EBP1 Thr37/46, p-P70S6K Thr389 and p-AKT1/2/3 Ser473 (PerkinElmer), and MSD Multi-Array Assay Systems for Phospho-4EBP1 (Thr37/46) and Phospho-AKT (Ser473) (MSD). Cells were seeded at 25,000 cells per well and exposed the next day to serial three-fold dilutions of compounds in complete medium with 0.1% dimethylsulfoxide (DMSO). After indicated incubation times, cells were lysed and AlphaLISA or MSD performed according to the manufacturers’ protocols. Samples were read using an EnVision Multilabel Plate Reader (PerkinElmer) using standard AlphaLISA settings or using an MSD plate reader. Data were plotted as a function of logM [compound] with a sigmoidal concentration response (variable slope) model fitted to the data to estimate the inhibitor half-maximum effective concentration (EC 50) in Prism 7 (GraphPad). Alternatively, results were analyzed as percentage of control in which 0% was set as signal from 1 μM Torin1 and 100% was set as the mean of DMSO wells on each plate, and inhibitor EC 50 was estimated as described

p-P70S6K Thr389 = assay: AlphaLISA/MSD analysis of S6K phosphorylation in MDA-MB-468 cells; format: cell-based; conditions: Homo sapiens; MDA-MB-468 cells; read-out: pS6K IC50
Procedure: as §1, §2

[2] = test system: 4EBP1 T37/T46 phosphorylation (mTORC1); assay: AlphaLISA/MSD analysis of 4EBP1 phosphorylation in MDA-MB-468 cells; format: cell-based; conditions: for IC50: Homo sapiens, MDA-MB-468 cells, read-out: p4EBP1 IC50; for reduction in mTORC1 p4EBP1 activity on going from 8 PEG units to 6 PEG units: versus the 8 PEG analog
Procedure: as §1, §2

tumor p4EBP1 = assay: Tumor PD after a single dose in the MCF-7 CDX model; format: in vivo, mice; conditions: MCF-7 CDX

SMILES: CO[C@H]1C[C@@H]2CC[C@@H](C)[C@@](O)(O2)C(=O)C(=O)N2CCCC[C@H]2C(=O)O[C@H]([C@H](C)C[C@@H]2CC[C@@H](OCCCCc3cn(CCOCCOCCOCCOCCOCCOCCC(=O)NCCCCn4nc(-c5ccc6oc(N)nc6c5)c5c(N)ncnc54)nn3)[C@H](OC)C2)CC(=O)[C@H](C)/C=C(\C)[C@@H](O)[C@@H](OC)C(=O)[C@H](C)C[C@H](C)/C=C/C=C/C=C/1C [compound 27]
- IC50 [1]: 5.2 nM
- IC50 (p-P70S6K Thr389): 0.26 nM
- IC50 [2]: 1.1 nM

SMILES: COc1ccc(-c2ccc3ncc4c(c3c2)n(-c2ccc(N3CCN(C(=O)CCOCCOCCOCCOCCOCCOCCn5cc(CCCCO[C@@H]6CC[C@@H](C[C@@H](C)[C@@H]7CC(=O)[C@H](C)/C=C(\C)[C@@H](O)[C@@H](OC)C(=O)[C@H](C)C[C@H](C)/C=C/C=C/C=C(\C)[C@@H](OC)C[C@@H]8CC[C@@H](C)[C@@](O)(O8)C(=O)C(=O)N8CCCC[C@H]8C(=O)O7)C[C@H]6OC)nn5)CC3)c(C(F)(F)F)c2)c(=O)n4C)cn1 [compound 26]
- IC50 [1]: 0.74 nM
- IC50 (p-P70S6K Thr389): 0.03 nM
- IC50 [2]: 0.08 nM

SMILES: CC(C)n1nc(-c2ccc3oc(N)nc3c2)c2c(N)ncnc21 [compound 5, sapanisertib, reference compound]
- inhibition of tumor p4EBP1 (tumor p4EBP1; 4 h after intraperitoneal dosing at 1 mg/kg): > 80%
- IC50 [1]: 1.8 nM

SMILES: CO[C@H]1C[C@@H]2CC[C@@H](C)[C@@](O)(O2)C(=O)C(=O)N2CCCC[C@H]2C(=O)O[C@H]([C@H](C)C[C@@H]2CC[C@@H](OC(=O)NCCOCCOCCOCCOCCOCCOCCOCCOCCC(=O)NCCCCn3nc(-c4ccc5oc(N)nc5c4)c4c(N)ncnc43)[C@H](OC)C2)CC(=O)[C@H](C)/C=C(\C)[C@@H](O)[C@@H](OC)C(=O)[C@H](C)C[C@H](C)/C=C/C=C/C=C/1C [compound 29]
- IC50 [1]: 3.6 nM
- IC50 (p-P70S6K Thr389): 0.61 nM
- IC50 [2]: 1.7 nM

SMILES: CO[C@H]1C[C@@H]2CC[C@@H](C)[C@@](O)(O2)C(=O)C(=O)N2CCCC[C@H]2C(=O)O[C@H]([C@H](C)C[C@@H]2CC[C@@H](OCCCCc3cn(CCOCCOCCOCCOCCOCCOCCOCCOCCC(=O)NCCCCn4nc(-c5cnc6[nH]ccc6c5)c5c(N)ncnc54)nn3)[C@H](OC)C2)CC(=O)[C@H](C)/C=C(\C)[C@@H](O)[C@@H](OC)C(=O)[C@H](C)C[C@H](C)/C=C/C=C/C=C/1C [compound 20]
- IC50 [1]: 17 nM
- IC50 (p-P70S6K Thr389): 0.22 nM
- IC50 [2]: 1 nM

SMILES: CO[C@H]1C[C@@H]2CC[C@@H](C)[C@@](O)(O2)C(=O)C(=O)N2CCCC[C@H]2C(=O)O[C@H]([C@H](C)C[C@@H]2CC[C@@H](OCCCCc3cn(CCOCCOCCOCCOCCOCCOCCC(=O)NCCCCn4nc(-c5cnc6[nH]ccc6c5)c5c(N)ncnc54)nn3)[C@H](OC)C2)CC(=O)[C@H](C)/C=C(\C)[C@@H](O)[C@@H](OC)C(=O)[C@H](C)C[C@H](C)/C=C/C=C/C=C/1C [compound 24]
- IC50 [1]: 110 nM
- IC50 (p-P70S6K Thr389): 0.24 nM
- IC50 [2]: 31 nM
- reduction in mTORC1 p4EBP1 activity on going from 8 PEG units to 6 PEG units [2]: > 30 fold

SMILES: CO[C@H]1C[C@@H]2CC[C@@H](C)[C@@](O)(O2)C(=O)C(=O)N2CCCC[C@H]2C(=O)O[C@H]([C@H](C)C[C@@H]2CC[C@@H](OCCO)[C@H](OC)C2)CC(=O)[C@H](C)/C=C(\C)[C@@H](O)[C@@H](OC)C(=O)[C@H](C)C[C@H](C)/C=C/C=C/C=C/1C [compound 4, everolimus, reference compound]
- effect on tumor p4EBP1 levels (tumor p4EBP1; single dose (38, 40 ip; everolimus 5 mg/kg oral)): minimal effect
- IC50 [1]: > 1000 nM
- IC50 (p-P70S6K Thr389): 0.07 nM
- IC50 [2]: > 1000 nM

SMILES: COc1ccc(-c2ccc3ncc4c(c3c2)n(C)c(=O)n4-c2ccc(N3CCN(C(=O)CCOCCOCCOCCOCCOCCOCCOCCOCCn4cc(CCCCO[C@@H]5CC[C@@H](C[C@@H](C)[C@@H]6CC(=O)[C@H](C)/C=C(\C)[C@@H](O)[C@@H](OC)C(=O)[C@H](C)C[C@H](C)/C=C/C=C/C=C(\C)[C@@H](OC)C[C@@H]7CC[C@@H](C)[C@@](O)(O7)C(=O)C(=O)N7CCCC[C@H]7C(=O)O6)C[C@H]5OC)nn4)CC3)c(C(F)(F)F)c2)cn1 [compound 19]
- IC50 [1]: 0.52 nM
- IC50 (p-P70S6K Thr389): 0.02 nM
- IC50 [2]: 0.06 nM

SMILES: CO[C@H]1C[C@@H]2CC[C@@H](C)[C@@](O)(O2)C(=O)C(=O)N2CCCC[C@H]2C(=O)O[C@H]([C@H](C)C[C@@H]2CC[C@@H](OC(=O)NCCOCCOCCOCCOCCOCCOCCOCCOCCC(=O)NCCS(=O)(=O)c3ccc(C(=O)N4CCOc5ccc(-c6ccc(N)nc6)cc5C4)c(C)c3F)[C@H](OC)C2)CC(=O)[C@H](C)/C=C(\C)[C@@H](O)[C@@H](OC)C(=O)[C@H](C)C[C@H](C)/C=C/C=C/C=C/1C [compound 31]
- IC50 [1]: 2.9 nM
- IC50 (p-P70S6K Thr389): 0.23 nM
- IC50 [2]: 0.7 nM

SMILES: CO[C@H]1C[C@@H]2CC[C@@H](C)[C@@](O)(O2)C(=O)C(=O)N2CCCC[C@H]2C(=O)O[C@H]([C@H](C)C[C@@H]2CC[C@@H](OCCOCc3cn(CCOCCOCCOCCOCCOCCOCCOCCOCCC(=O)NCCCCn4nc(-c5ccc6oc(N)nc6c5)c5c(N)ncnc54)nn3)[C@H](OC)C2)CC(=O)[C@H](C)/C=C(\C)[C@@H](O)[C@@H](OC)C(=O)[C@H](C)C[C@H](C)/C=C/C=C/C=C/1C [compound 3, RapaLink-1, reference compound]
- IC50 [1]: 6.7 nM
- IC50 (p-P70S6K Thr389): 0.93 nM
- IC50 [2]: 1.7 nM

SMILES: CO[C@H]1C[C@@H]2CC[C@@H](C)[C@@](O)(O2)C(=O)C(=O)N2CCCC[C@H]2C(=O)O[C@H]([C@H](C)C[C@@H]2CC[C@@H](OCCCCc3cn(CCOCCOCCOCCOCCOCCC(=O)NCCCCn4nc(-c5ccc6oc(N)nc6c5)c5c(N)ncnc54)nn3)[C@H](OC)C2)CC(=O)[C@H](C)/C=C(\C)[C@@H](O)[C@@H](OC)C(=O)[C@H](C)C[C@H](C)/C=C/C=C/C=C/1C [compound 28]
- IC50 [1]: 33 nM
- IC50 (p-P70S6K Thr389): 0.37 nM
- IC50 [2]: 25 nM

SMILES: CO[C@H]1C[C@@H]2CC[C@@H](C)[C@@](O)(O2)C(=O)C(=O)N2CCCC[C@H]2C(=O)O[C@H]([C@H](C)C[C@@H]2CC[C@@H](OCCCCc3cn(CCOCCOCCOCCOCCOCCOCCOCCOCCC(=O)NCCCCn4nc(-c5ccc6oc(N)nc6c5)c5c(N)ncnc54)nn3)[C@H](OC)C2)CC(=O)[C@H](C)/C=C(\C)[C@@H](O)[C@@H](OC)C(=O)[C@H](C)C[C@H](C)/C=C/C=C/C=C/1C [compound 16]
- IC50 [1]: 3.1 nM
- IC50 (p-P70S6K Thr389): 0.42 nM
- IC50 [2]: 1.1 nM

SMILES: CO[C@H]1C[C@@H]2CC[C@@H](C)[C@@](O)(O2)C(=O)C(=O)N2CCCC[C@H]2C(=O)O/C([C@H](C)C[C@@H]2CC[C@@H](OC(=O)NCCOCCOCCOCCOCCOCCOCCOCCOCCC(=O)N3CCc4cc(Cn5nc(-c6ccc7oc(N)nc7c6)c6c(N)ncnc65)ccc4C3)[C@H](OC)C2)=C/C(=O)[C@H](C)/C=C(\C)[C@@H](O)[C@@H](OC)C(=O)[C@H](C)C[C@H](C)/C=C/C=C/C=C/1C [compound 33]
- IC50 [1]: > 1000 nM
- IC50 (p-P70S6K Thr389): 80 nM
- IC50 [2]: 320 nM

SMILES: CO[C@H]1C[C@@H]2CC[C@@H](C)[C@@](O)(O2)C(=O)C(=O)N2CCCC[C@H]2C(=O)O[C@H]([C@H](C)C[C@@H]2CC[C@@H](OCCCCc3cn(CCOCCOCCOCCOCCOCCOCCC(=O)NCCCCn4nc(-c5cc6cc(O)ccc6[nH]5)c5c(N)ncnc54)nn3)[C@H](OC)C2)CC(=O)[C@H](C)/C=C(\C)[C@@H](O)[C@@H](OC)C(=O)[C@H](C)C[C@H](C)/C=C/C=C/C=C/1C [compound 25]
- IC50 [1]: 120 nM
- IC50 (p-P70S6K Thr389): 0.59 nM
- IC50 [2]: 370 nM
- reduction in mTORC1 p4EBP1 activity on going from 8 PEG units to 6 PEG units [2]: > 250 fold
